Source: patent US20060263805A1, “Diagnosing and treating potassium channel defects” (priority 2005, published 2006)
One block for each molecule: values may come before it.

Experiments:
[1] = target: A1513T SUR2A NBD2; assay: NBD2 ATPase activity by spectrophotometry, A1513T mutant; format: biochemical
Protocol: (§1) Cloning of KATP channel subunits and purification of SUR2A ATPase. cDNAs encoding SUR2A and Kir6.2 were subcloned into the expression vector pcDNA3.1. PCR-based site-directed mutagenesis was carried out using primers incorporating identified mutations (QuickChange, Stratagene). The constructs were sequenced to verify mutations and rule out additional changes in sequence. […]
(§2) Enzymology and nucleotide binding. ATPase activity of purified NBD2 was measured in the presence of Mg^2+, as Pi generation detected spectrophotometrically at 360 nm with the EnzChek Phosphate Assay Kit or by monitoring conversion of [γ-^32P]ATP using thin layer chromatography and quantified it with Phosphorlmager and ImageQuant software (Molecular Dynamics) (Zingman et al., 2002, supra). […] Binding of fluorescent ATP analog TNP-ATP to purified NBD2 constructs was determined by fluorescence spectrophotometry (QuantaMaster, PTI) at excitation and emission wavelengths of 410 nm and 540 nm, respectively. […]
(§3) The ADP dissociation constant, KADP, was determined from spectrometric measurement of steady-state NBD2 ATPase activity at [ADP]=O with variable [ATP]. […]

[2] = target: wild-type SUR2A NBD2; assay: NBD2 ATPase activity by spectrophotometry, wild-type; format: biochemical
Protocol: as §1, §2, §3

[3] = target: Fs1524 SUR2A NBD2; assay: NBD2 ATPase activity by spectrophotometry, Fs1524 mutant; format: biochemical
Protocol: as §1, §2, §3

[4] = system: hypertensive wild-type mice; assay: Dobutamine challenge, left ventricular catheterization, hypertensive wild-type; format: in vivo; conditions: dobutamine 15 mg/kg i.p.
Protocol: Left Ventricular Catheterization. Invasive left ventricular pressure recordings were measured in vivo by a 1.4-Fr micropressure catheter (SPR-671, Millar Instruments) following carotid arterial cannulation and advancement across the aortic valve under 2,2,2 tri-bromoethanol ([…] i.p.; Sigma) anesthesia, before and after dobutamine (15 mg/kg i.p.) challenge. Left ventricular developed pressure was defined as the absolute difference between the maximum and minimum left ventricular pressure (mm Hg) and the relaxation time as the time from maximal rate of pressure decay to minimum left ventricular pressure (ms).

[5] = system: patient with atrial fibrillation; format: in vivo, human; conditions: for response of atrial fibrillation to antiarrhythmic medical therapy: patient
[6] = system: wild-type hearts; assay: Coronary flow in isolated perfused wild-type hearts; parameters: species or system mice
[7] = system: wild-type mice; assay: Telemetric rhythm monitoring under isoproterenol challenge, wild-type mice; format: in vivo; conditions: isoproterenol 10 mg/kg injection
Source text: (§4) KATP channel knockout mice were backcrossed for 5 generations to a C57BL/6 background. With approval of the Mayo Foundation Institutional Animal Care and Use Committee, the heart rate and electrocardiogram were continuously monitored in the conscious state. To this end, KATP channel knockout or 8- to 12-week old, age- and sex-matched C57BL/6 wild-type mice were implanted with telemetry devices (Data Sciences International) and leads tunneled subcutaneously under isoflurane anesthesia. Following a 2-week recovery from surgery, serial signals were acquired at 2 kHz before and during isoproterenol challenge.

[8] = system: wild-type hearts; assay: Monophasic action potentials in Langendorff-perfused wild-type hearts under isoproterenol; parameters: species or system mice
Protocol: (§5) In situ aortic cannulation and Langendorff perfusion. Mice were anesthetized with intraperitoneal injection of 2,2,2 tri-bromoethanol (0.375 mg/g body weight; Sigma), intubated, ventilated, and the aortic root cannulated in situ (Hodgson et al., 2003, supra). Perfusion was sustained ex vivo on a Langendorff system at 90 cm H2O, with 37° C.-prewarmed and 100% O2-bubbled Tyrode solution (in mM: NaCl 137, KCl 5.4, CaCl2 2, MgCl2 1, HEPES 10, glucose 10; pH 7.4 with NaOH). Following 10-min equilibration, KCl was reduced to 2.7 mM and MgCl2 to 0.35 mM, with the atrioventricular node cauterized to allow ventricular pacing. Coronary flow was monitored with a T106 blood flow meter (Transonic Systems).
(§6) Electrogram and monophasic action potential recordings. Orthogonal electrogram signals were simultaneously recorded using four silver-silver chloride electrodes surrounding the perfused heart in a simulated “Einthoven” configuration, and signals amplified by an electrocardiographic amplifier (Gould Electronics). A catheter (NuMed) was placed in the left ventricular endocardium to pace the heart at twice diastolic threshold intensity with 2 ms pulse width and 100 ms cycle length using a pulse generator (A310 Accupulser, World Precision Instruments). Monophasic action potentials were continuously recorded from the left ventricle by a probe (EP Technologies) positioned on the epicardial surface, and amplified signals (IsoDam, World Precision Instruments) acquired at 11.8 kHz and stored for off-line digital analysis.

[9] = system: Kir6.2-KO hearts; assay: Monophasic action potentials in Langendorff-perfused Kir6.2-KO hearts under isoproterenol; parameters: species or system mice
Source text: Kir6.2-knockout mice. Mice deficient in KATP channels were generated by targeted disruption of the KCNJ11 gene, which encodes the pore-forming Kir6.2 subunit of the channel complex (Miki et al., 1998, supra). Kir6.2-knockout mice were backcrossed for five generations into a C57BL/6 background. This investigation was approved by the Mayo Clinic Institutional Animal Care and Use Committee.
as §5, §6

[10] = system: Kir6.2 knockout mice; assay: Telemetric rhythm monitoring under isoproterenol challenge, KATP channel knockout mice; format: in vivo; conditions: isoproterenol 10 mg/kg injection; within 20 min
Source text: as §4

[11] = system: Kir6.1-KO mice; conditions: mouse, in vivo, sc
Source text: Kir6.1-deficient Mice. Mice deficient in vascular KATP channels (Kir6.1-KO), while maintaining normal KATP channel current in non-vascular tissues including the myocardium, were generated by targeted disruption of the KCNJ8 gene encoding the pore-forming Kir6.1 subunit and backcrossed for more than 5 generations to a C57BL/6 background (Miki et al., 2002, Nat. Med., 8:466-72). Six to eight week-old Kir6.1-KO mice were compared to age and sex matched wild-type littermate controls or to mice lacking non-vascular, including myocardial, KATP channels generated by targeted disruption of the KCNJ11 gene that encodes the Kir6.2 channel pore (Zingman et al., 2002, PNAS USA, 99:13278-83; Suzuki et al., 2001, Circ. Res., 88:570-7). […] Comparisons between groups were performed by analysis of variance, Student's t-tests, non-parametric or log-rank tests, using JMP software (SAS). Data are presented as mean±SEM; n refers to the sample size. P<0.05 was predetermined. All chemicals were obtained from Sigma. The Mayo Foundation Institutional Animal Care and Use Committee approved all experimental protocols.
Endotoxic Shock. The shock state of severe sepsis was modeled by administration of Escherichia coli LPS serotype 0111:B4 (Natanson et al., 1989, J. Exp. Med., 169:823-32; Suffredini et al., 1989, N. Engl. J. Med., 321:280-7). […]

[12] = system: hypertensive wild-type mice; assay: Mineralocorticoid/salt hypertension with pharmacologic intervention, wild-type mice; format: in vivo; conditions: verapamil 250 μg orally daily
Protocol: KATP Channel Knockout and Experimental Hypertension. KATP channel-deficient mice (Kir6.2-KO) were generated by targeted disruption of the KCNJ11 gene (Miki et al., 1998, PNAS USA, 95:10402-6) which encodes the pore-forming Kir6.2 channel subunit of myocardial but not renal or vascular KATP channels, and backcrossed for 5 generations to a C57BL/6 background. […] Water or salt water intake was measured weekly. All mice were given standard rodent chow, had similar awake non-fasting blood glucose levels measured by tail sampling (Table 2; OneTouch Ultra, Lifescan), were housed individually with a 12 h day/night cycle, and were observed daily until termination of the study at day 21. Following one-week of acclimatization, blood pressure was measured by automated tail-cuff recording (Columbus Instruments) in awake restrained wild-type and Kir6.2-KO mice, 2 weeks post-nephrectomy with or without mineralocorticoid/salt loading. […]
Gross Pathology and Tissue Fibrosis. […] Lung samples were dried at 65° C. for 48 h and reweighed with pulmonary congestion assessed by comparing wet to dry lung weight ratios. Interstitial fibrosis was quantified by computer analysis (MetaMorph, Visitron Universal Imaging) of 0.5-μm thick, paraffin-embedded, Masson's trichrome-stained sections. […] All quantification was performed blinded to the sample origin. […]

[13] = system: hypertensive Kir6.2-KO mice; conditions: verapamil 250 μg orally daily
Source text: KATP Channel Knockout and Experimental Hypertension. KATP channel-deficient mice (Kir6.2-KO) were generated by targeted disruption of the KCNJ11 gene (Miki et al., 1998, PNAS USA, 95:10402-6) which encodes the pore-forming Kir6.2 channel subunit of myocardial but not renal or vascular KATP channels, and backcrossed for 5 generations to a C57BL/6 background. With approval of the Mayo Foundation Institutional Animal Care and Use Committee, Kir6.2-KO or 8- to 12-week old, age-matched, C57BL/6 male wild-type mice had left nephrectomy through a retroperitoneal flank excision under isoflurane-anesthesia to reduce clearance and mineralocorticoid-hypertension was induced for 21 days by subcutaneous implantation of a 50 mg 21-day-release deoxycorticosterone-acetate pellet (Innovative Research of America) and drinking water supplementation with 1% NaCl/0.2% KCl. Control wild-type or Kir6.2-KO mice underwent nephrectomy alone. Water or salt water intake was measured weekly. […] Following one-week of acclimatization, blood pressure was measured by automated tail-cuff recording (Columbus Instruments) in awake restrained wild-type and Kir6.2-KO mice, 2 weeks post-nephrectomy with or without mineralocorticoid/salt loading. Systolic blood pressure was digitally derived from ten sequential recordings.
Gross Pathology and Tissue Fibrosis. At 21 days, whole heart, left ventricle including septum, kidney and lungs were removed, rinsed, blotted dry, and weighed ex vivo. Lung samples were dried at 65° C. for 48 h and reweighed with pulmonary congestion assessed by comparing wet to dry lung weight ratios. Interstitial fibrosis was quantified by computer analysis (MetaMorph, Visitron Universal Imaging) of 0.5-μm thick, paraffin-embedded, Masson's trichrome-stained sections. Kidney or left ventricular collagen content was determined by assaying hydroxyproline content after overnight hydrolysis by 12 N HCl with samples run in duplicate against standard hydroxyproline (Sigma). All quantification was performed blinded to the sample origin.
Isolated Cardiomyocytes, Immunohistochemistry and Calcium Imaging. […]

[14] = system: Kir6.1-KO hearts; assay: Coronary flow in isolated perfused Kir6.1-KO hearts; parameters: species or system mice
Protocol: Coronary Flow. The aorta was cannulated in situ. […] Coronary flow was continuously measured with a T106 small animal blood flow meter (Transonic Systems Incorporated). The effect of recombinant murine TNFα was assessed at least 20 min after flow stabilization. […] Maximum vasodilation was defined as the peak increase in coronary flow observed in the wild-type in response to 10 μl of 1 mM adenosine after at least 10 min of return to baseline flow on TNFα washout.

[15] = system: wild-type and mutated SUR2A NBD2; assay: TNP-ATP binding to purified NBD2 constructs (fluorescence, Scatchard); conditions: Scatchard analysis
Protocol: Enzymology and nucleotide binding. ATPase activity of purified NBD2 was measured in the presence of Mg^2+, as Pi generation detected spectrophotometrically at 360 nm with the EnzChek Phosphate Assay Kit or by monitoring conversion of [γ-^32P]ATP using thin layer chromatography and quantified it with Phosphorlmager and ImageQuant software (Molecular Dynamics) (Zingman et al., 2002, supra). The initial kinetics of ATP hydrolysis was captured by stopped-flow spectroscopy with instantaneous mixing of purified polypeptide and substrate on an SX. 18MV spectrometer (Applied Photophysics). Binding of fluorescent ATP analog TNP-ATP to purified NBD2 constructs was determined by fluorescence spectrophotometry (QuantaMaster, PTI) at excitation and emission wavelengths of 410 nm and 540 nm, respectively.

[16] = ADP-dependent inhibition at 2 mM ATP, read-out: ADP-dissociation constant (KADP)
[17] = 0 ADP, creatine kinase 0.01 U/ml, creatine phosphate 5 mM

Molecule: Nc1ncnc2c1ncn2[C@@H]1O[C@H](COP(=O)(O)OP(=O)(O)O)[C@@H](O)[C@H]1O [ADP]
Kd [1, 16]: 24.9 ± 5.6 µM
Kd [2, 16]: 8.6 ± 0.3 µM
Kd [3, 16]: 11 ± 1.5 µM

Molecule: Nc1ncnc2c1ncn2[C@@H]1O[C@H](COP(=O)(O)OP(=O)(O)OP(=O)(O)O)[C@@H](O)[C@H]1O [ATP]
Michaelis-Menten constant of NBD2 ATPase (ATP dependence) [1, 17]: 0.094 ± 0.013 mM
Michaelis-Menten constant of NBD2 ATPase (ATP dependence) [2, 17]: 0.11 ± 0.02 mM
Michaelis-Menten constant of NBD2 ATPase (ATP dependence) [3, 17]: 0.084 ± 0.010 mM

Molecule: CC(CCc1ccc(O)cc1)NCCc1ccc(O)c(O)c1 (stereo not drawn) [dobutamine]
response to inotropic challenge [4]: normal contractile response to the same stress challenge with no death

Molecule: O=C(NCC1CCCCN1)c1cc(OCC(F)(F)F)ccc1OCC(F)(F)F (stereo not drawn) [flecainide]
response of atrial fibrillation to antiarrhythmic medical therapy [5]: refractory and/or intolerant

Molecule: COc1ccc(Cl)cc1C(=O)NCCc1ccc(S(=O)(=O)NC(=O)NC2CCCCC2)cc1 [glyburide]
TNFα-induced increase in coronary flow after glyburide pre-treatment ([6]; 10 min perfusion of 10 μM glyburide before TNFα): not observed

Molecule: CC(C)NCC(O)c1ccc(O)c(O)c1 (stereo not drawn) [isoproterenol]
cardiac rhythm after isoproterenol [7]: maintained normal sinus rhythm
hearts with isoproterenol-induced afterdepolarizations complicated by triggered activity ([8]; 1 out of 6): 16%
monophasic action potential duration at 90% repolarization (APD90) after isoproterenol ([8]; 10-min perfusion, isoproterenol 1 mM, before 82±2): 74 ± 2 ms
early afterdepolarizations, share of action potentials examined ([8]; isoproterenol challenge): 1±1%
hearts with isoproterenol-induced afterdepolarizations complicated by triggered activity ([9]; Kir6.2-KO hearts, 6 out of 8): 75%
monophasic action potential duration at 90% repolarization (APD90) after isoproterenol ([9]; Kir6.2-KO hearts, 10-min perfusion, isoproterenol 1 mM, before 79±3): 80 ± 3 ms
early afterdepolarizations, share of action potentials examined ([9]; Kir6.2-KO hearts, isoproterenol challenge): 97±2%
fold higher risk of premature ventricular complexes, Kir6.2-KO versus wild-type ([9]; isoproterenol challenge): 16 fold
knockouts with atrial fibrillation [10]: 70%
atrial fibrillation under isoproterenol infusion ([5]; patient with ABCC9 mutation, before ablation): provoked

complication of drug use ([5]; human, in vivo): symptomatic bradycardia
Molecule: CC(C)NCC(O)c1ccc(NS(C)(=O)=O)cc1 (stereo not drawn) [sotalol]
response of atrial fibrillation to antiarrhythmic medical therapy [5]: refractory and/or intolerant

Molecule: COc1ccc(CCN(C)CCCC(C#N)(c2ccc(OC)c(OC)c2)C(C)C)cc1OC (stereo not drawn) [verapamil]
median survival time [11]: 24 h
left ventricular hypertrophy [12]: not affected
mortality ([13]; hypertensive Kir6.2-KO): prevention of all mortality
syndrome of heart failure including lung congestion ([13]; hypertensive Kir6.2-KO): averted
degree of systemic hypertension [13]: did not affect
coronary vasodilation in TNFα-challenged hearts ([14]; 1 μM verapamil after TNFα): reinstated coronary vasodilation

Molecule: TNFα
TNFα-induced increase in coronary flow ([14]; 4, 8 or 20 μg/l TNFα): not observed
coronary vasodilation (coronary flow) under TNFα ([6]; recombinant TNFα 4 μg/l): induced maximal coronary vasodilation

Molecule: TNP-ATP
binding affinity of TNP-ATP, wild-type versus mutated NBD2 [15]: similar
